Earlier results on one molecule are cited in patent US20080188553A1, “NOVEL ASCORBIC ACID COMPOUNDS, METHODS OF SYNTHESIS AND APPLICATION USE THEREOF” (priority 2007, published 2008).

For this series the following is noted: relative to ascorbic acid; test conditions not given.

Turning to `O=C1O[C@H]([C@@H](O)CO)C(O)=C1OS(=O)(=O)O` [L-ascorbate 2-sulphate], the “more stable than ascorbic acid” value is 20 times.
